Data reported in patent US20240041976A1, “COMPOSITION AND USE” (priority 2020, published 2024).
Like-named read-outs stand apart in the source and are kept apart here.

Tests used:
Assay type in all cases: cell-based, Staphylococcus aureus
[1] = tested on: S. aureus ATTC 10832 biofilm; test: Biofilm-oriented antimicrobial test (BOAT), MIC50 in biofilms; settings: for MIC50: individual component
Procedure: (§1) Synergistic interactions between antimicrobials were determined using the fractional inhibition concentration (FIC). The FIC values were calculated as follows: the sum of the FIC =FICa+FICb+FICc, where the FICa means MIC of A in combination/MIC of A alone, FICb means MIC of B in combination/MIC of B, and FICc means MIC of C in combination/MIC of C alone. Effects were considered as synergistic if FIC was ≤0.5 for two components mixture and ≤0.75 for three components mixture.
(§2) Staphylococcus aureus strains were inoculated in 5 ml of TSB and incubated O/N at 37° C. Ten μl of the O/N cultures were then inoculated in 90 μl of TSB supplemented with 1% glucose and 1% NaCl (TSB-GN) in the appropriate wells of a 96-well microtiter plate (Sarstedt) to a final volume of 100 μl. The plates were then incubated at 37° C. for 24 h. After the incubation, the presence of the biofilm at the bottom of the wells was assessed visually.
(§3) The BOAT assay was performed as described previously (Gronseth et al., 2017, Int. J. Pediatr. Otorhinolaryngol., Vol. 103, p 58-64) with some modifications. The serial dilutions of the antimicrobials were prepared in challenge plates as follows: 175 μl of TSB were transferred in each row of a 96-well microtiter plate, except for the first row, according to the number of microbial strains to treat. In the first row of the plate, the antimicrobials were diluted to their respective working concentrations in a final volume of 350 μl of TSB. From the first row, 175 μl of the antimicrobial dilutions were then transferred to the second row of the plate and further serially diluted to the bottom of the plate. The same procedure was followed to prepare the controls, except that instead of the antimicrobials an equivalent volume of the respective vehicles were used. The biofilms were allowed to form for 24 h and then washed twice with 100 μl of sterile saline buffer and a total of 150 μl of the antimicrobial and control dilutions were transferred from the challenge plate to the corresponding wells of the biofilm plate. The challenged biofilms were then incubated for an additional 24 h at 37° C. After the challenge period, the antimicrobial dilutions were removed and the biofilms were carefully washed three times with 150 μl of sterile saline buffer. A total of 100 μl of TSB supplemented with 0.025% of triphenyl-tetrazolium chloride (TTC, Sigma) were then added to each well of the plate and further incubated at 37° C. for 5h. The results were then assessed by monitoring the development (or not) of red formazan (red colour), denoting the retention of metabolic activity by bacterial cells (Moussa et al., 2013, J. Mycol., Vol. 2013; Perez et al., 2010, Lett. Appl. Microbiol., Vol. 51, p 331-337). The medium was then removed and 200 μl of an ethanol:acetone (70:30) mixture was added to the wells and incubated O/N in order to extract the red formazan. The amount of extracted dye, reflecting the degree of bacterial cell metabolic activity, was then quantified by spectrophotometric readings at 492 nm.

[2] = tested on: S. aureus ATTC 29213 biofilm; test: as above; settings: for MIC50: individual component
Procedure: as §1, §2, §3

[3] = tested on: S. aureus ATTC 33591 biofilm; test: as above; settings: for MIC50 of the component in combination / MIC50: ATTC 33591, biofilm; for MIC50: individual component
Procedure: as §1, §2, §3

[4] = tested on: S. aureus Newman biofilm; test: as above; settings: for MIC50: individual component
Procedure: as §1, §2, §3

[5] = tested on: S. aureus USA 300 biofilm; test: as above
Procedure: as §1, §2, §3

[6] = tested on: S.a. 3255 biofilm; test: as above; settings: for MIC50: individual component
Procedure: as §1, §2, §3

[7] = tested on: three MRSA strains (ATCC33591-lux, USA-300 and MRSA 43484); test: AAMP assay and checkerboard synergy, summary
Procedure: Briefly, equal amounts of antimicrobial A were applied on microtiter plate 1 in wells A1-H1 and then diluted two-fold to wells 2-12. Similarly, equal amounts of antimicrobial B were applied on microtiter plate 2 in wells A1-A12 and diluted two-fold in wells B-H. Volumes of 50 μl of antimicrobial A from each well of microtiter plate 1 were transferred into microtiter plate 3, except for wells H1-H12. Similarly, the same volumes were transferred from microtiter plate 2 into plate 3, except for wells A1-A8. […] A 50 μl volume of pure broth was added into each well in lines H1-H12 and A1-A8 which were used to estimate MIC values of pure substances (blank).
Three-component synergy was assessed by mixing the three components (100 μg of PenG, 50 μg of GarKS and 2.5 μg of MP1) into one well of a microtiter plate, compared with activity of individual antimicrobials on the same plate.

[8] = tested on: MRSA; test: MIC of the mixture dissolved in 5% HPC; settings: for MIC: Staphylococcus aureus, MRSA, read-out: final MIC of the component in the mixture in HPC
Procedure: Antimicrobial activity was measured using the AAMP assay (Wiegand et al., 2008, Nat. Protoc., Vol. 3(2), p 163-175).
We also tested hydroxypropyl cellulose (HPC) which is a more hydrophilic polymer and commonly used for topical and oral pharmaceutical preparations (Alvarez-Lorenzo et al., 1999, Int. J. Pharmaceutics, Vol. 180(1), p 91-103).

[9] = Staphylococcus aureus, ATTC10832BIOFILM, read-out: MIC50
[10] = garvicin KS + micrococcin P1 + penicillin G
[11] = Staphylococcus aureus, ATTC29213BIOFILM, read-out: MIC50
[12] = Staphylococcus aureus, ATTC33591BIOFILM, read-out: MIC50
[13] = Staphylococcus aureus, read-out: MIC50
[14] = Staphylococcus aureus, USA300, individual component, read-out: MIC50
[15] = triple combination PenG, GarKS and MP1

Molecule | MIC50 [1, 9] [µg/mL] | MIC50 of the component in combination ([1]; garvicin KS + micrococcin P1) [µg/mL] | MIC50 of the component in combination [1, 10] [µg/mL] | MIC50 [2, 11] [µg/mL] | MIC50 of the component in combination ([2]; garvicin KS + micrococcin P1) [µg/mL] | MIC50 of the component in combination [2, 10] [µg/mL] | MIC50 of the component in combination ([3]; garvicin KS + micrococcin P1) [µg/mL] | MIC50 of the component in combination [3, 10] [µg/mL] | MIC50 [3, 12] [µg/mL] | MIC50 [4, 13] [µg/mL] | MIC50 of the component in combination ([4]; garvicin KS + micrococcin P1) [µg/mL] | MIC50 of the component in combination [4, 10] [µg/mL] | MIC50 [5, 14] [µg/mL] | MIC50 of the component in combination ([5]; garvicin KS + micrococcin P1) [µg/mL] | MIC50 of the component in combination [5, 10] [µg/mL] | MIC50 [6, 13] [µg/mL] | MIC50 of the component in combination ([6]; garvicin KS + micrococcin P1) | MIC50 of the component in combination [6, 10] [mg/mL] | MIC of the component when combined [7, 15] [µg/mL] | reduction of MIC when combined [7, 15] | other results
C/C=C(\NC(=O)c1csc(-c2csc(-c3ccc4c(n3)-c3csc(n3)[C@H]([C@@H](C)O)NC(=O)c3csc(n3)[C@H](C(C)C)NC(=O)c3csc(n3)/C(=C/C)NC(=O)[C@H]([C@@H](C)O)NC(=O)c3csc-4n3)n2)n1)C(=O)NC[C@@H](C)O [MP1, micrococcin P1] | > 100 | 25 | 3.1 | > 100 | 25 | 6.3 | >100 | 100 | > 100 | > 100 | 25 | 25 | > 100 | 100 | 100 | > 100 | 2.5 × 10^−2. mg/ml | 0.0063 | 0.08 | about 30 times | MIC of the antimicrobial in comb. with GarKS ([7]; All three strains): 0.16 µg/mL; MIC of the component when combined ([7]; MP1 with PenG): 0.16 to 0.3 µg/mL; reduction of MIC when combined ([7]; MP1 with PenG): 8-16 times; MIC of the component when GarKS and MP1 are combined ([7]; checkerboard assay): 0.16 µg/mL; MIC [8]: 0.04 µg/mL
CC1(C)S[C@@H]2[C@H](NC(=O)Cc3ccccc3)C(=O)N2[C@H]1C(=O)O [Penicillin G] | 10000 | – | 310 | 10000 | – | 630 | – | 10000 | > 10000 | 10000 | – | 2500 | > 10000 | – | 10000 | 10000 | – | 0.63 | 8 | more than 300 times | MIC50 of the component in combination ([1]; garvicin KS + penicillin G): 630 µg/mL; MIC50 of the component in combination ([2]; garvicin KS + penicillin G): 2500 µg/mL; MIC50 of the component in combination ([3]; garvicin KS + penicillin G): >10000 µg/mL; MIC50 of the component in combination ([4]; garvicin KS + penicillin G): 1300 µg/mL; MIC50 of the component in combination ([5]; garvicin KS + penicillin G): >10000 µg/mL; MIC50 of the component in combination ([6]; garvicin KS + penicillin G): 0.63 mg/mL; MIC of GarKS in comb. antibiotic/GarKS/MP1 ([7]; All three strains): 4 µg/mL; MIC of MP1 in comb. antibiotic/GarKS/MP1 ([7]; All three strains): 0.08 µg/mL; MIC of MP1 in comb. with the labelled antibiotic ([7]; All three strains): 0.16 to 0.3 µg/mL; MIC of the antibiotic in comb. with GarKS and MP1 ([7]; All three strains): 8 µg/mL; MIC of the antibiotic in comb. with MP1 ([7]; All three strains): 16 to 32 µg/mL; MIC of the antimicrobial in comb. with GarKS ([7]; All three strains): 16 µg/mL; MIC of the component when combined ([7]; GarKS with Amp or PenG): 16 µg/mL; MIC of the component when combined ([7]; MP1 with PenG): 16 to 32 µg/mL; reduction of MIC when combined ([7]; MP1 with PenG): 80-150 times; MIC ([7]; Staphylococcus aureus, 24 h, All three strains, read-out: MIC, single antimicrobial): > 2500 µg/mL; synergy with GarKS ([7]; checkerboard assay): moderate synergy; MIC [8]: 2 µg/mL
Garvicin KS: three-peptide leaderless bacteriocin (GarA, GarB, GarC; SEQ ID NO:6-8), peptides synthesized (peptide, listed as Lactococcus garvieae) chain 1: MGAIIKAGAKIVGKGVLGGGASWLGWNVGEKIWK chain 2: MGAIIKAGAKIIGKGLLGGAAGGATYGGLKKIFG chain 3: MGAIIKAGAKIVGKGALTGGGVWLAEKLFGGK | – | 1250 | 160 | – | 1250 | 310 | >5000 | 5000 | – | – | 1250 | 1250 | – | 5000 | 5000 | – | 3.1 × 10^−1. mg/ml | 0.31 | 4 | about 8 times | MIC50 of the component in combination ([1]; garvicin KS + penicillin G): 310 µg/mL; MIC50 [1]: 2500 µg/mL; MIC50 of the component in combination ([2]; garvicin KS + penicillin G): 1250 µg/mL; MIC50 [2]: 1250 µg/mL; MIC increase compared to the planktonic state ([3]; ATCC 33591 biofilm): over 100 fold; MIC50 of the component in combination ([3]; garvicin KS + penicillin G): >5000 µg/mL; MIC50 [3]: >5000 µg/mL; MIC50 of the component in combination ([4]; garvicin KS + penicillin G): 630 µg/mL; MIC50 [4]: 1250 µg/mL; MIC50 of the component in combination ([5]; garvicin KS + penicillin G): >5000 µg/mL; MIC50 ([5]; individual component): 2500 µg/mL; MIC50 of the component in combination ([6]; garvicin KS + penicillin G): 0.31 mg/mL; MIC50 [6]: 1250 µg/mL; reduction of MIC when combined ([7]; GarKS with Amp or PenG): 4 times; MIC of the component when GarKS and MP1 are combined ([7]; checkerboard assay): 8 µg/mL; final MIC of the component in the mixture in HPC [8]: 2 µg/mL
